Measurements published in US12383522B2, “Baclofen formulations and methods of minimizing patient exposure to metabolite variations” (AMNEAL PHARMACEUTICALS LLC, priority 2021, dated 2025).
Like-named read-outs stand apart in the source and are kept apart here.

Tests used:
[1] = background statement; cited from earlier work
[2] = Accelerated stability studies of API/stabilizer preparations (Example 1), lactam impurity A by HPLC; type: physicochemical

In the case of O=C(O)CC(CO)c1ccc(Cl)cc1 (centres unmarked) [Treatment M1, 3-(4-chlorophenyl)-4-hydroxybutyric acid], the “biological activity of metabolite (limited evaluation)” value [1] is listed as “inactive” and the “share of dominant metabolite of baclofen (reported)” value [1] is listed as 15%.

In the case of NCC(CC(=O)O)c1ccc(Cl)cc1 (centres unmarked) [baclofen, 4-amino-3-(4-chlorophenyl)butanoic acid], the “effect of EUDRAGIT E on formation of lactam impurity A” value (“effect of EUDRAGIT E” for short) ([2]; closed glass vials, 60° C. (baclofen, gabapentin) or 80° C. (pregabalin), HPLC, FIGS. 1-12) is reported as “stabilization effect”.

For NCC1(CC(=O)O)CCCCC1 [gabapentin], the “effect of EUDRAGIT E” value [2] was “destabilization effect”.

With CC(C)C[C@H](CN)CC(=O)O [pregabalin] the “effect of EUDRAGIT E” value [2] was “destabilization effect”.
